Measured values: patent US4904657A, “4H-quinolizin-4-one compounds exhibiting therapeutic activities” (Kissei Pharmaceutical Co., Ltd., priority 1987, dated 1990)

Legend:
[1] = system: IgE; assay: IgE produced in in vitro culture of spleen cells from DNP-As immunized mice (ELISA); format: cell-based, BALB/c mice; conditions: Mus musculus, 96 h, spleen cell culture, 37° C., 4 days; for inhibition at 40 µg/mL: 40 μg/ml; for inhibition at 5 µg/mL: 5 μg/ml; for inhibition at 10 µg/mL: 10 μg/ml; for inhibition at 2.5 µg/mL: 2.5 μg/ml; for inhibition at 20 µg/mL: 20 μg/ml; for inhibition at 1 µg/mL: 1 μg/ml
Description: (§1) Determination of Igs Produced in In Vitro Culture
(§2) BALB/c mice were immunized intraperitoneally with 5 μg of DNP-As adsorbed on 4 mg aluminum hydroxide gel. Four weeks after the immunization, the spleens were excised from the mice and 5×10^7 spleen cells were transferred intravenously into the recipient mice which had been exposed to 600 rad of X-ray irradiation. Immediately after cell transfer, the recipients were then immunized intraperitoneally with 5 μg of DNP-As adsorbed on 4 mg aluminum hydroxide gel to induce adoptive secondary immune response. Further 4 weeks after the immunization of recipients, the spleens were excised from then and the spleen cell suspensions containing 5×10^6 cells/ml were cultured with or without a compound to be tested in 96-well micro-titer plates at 37° C. for 4 days. IgE and IgG secreted into the culture supernatant was each determined correspondingly by ELISA and the inhibitory effect was calculated according to the following equation. [formula]

[2] = system: IgG; assay: IgG produced in in vitro culture of spleen cells from DNP-As immunized mice (ELISA); format: cell-based, BALB/c mice; conditions: Mus musculus, 96 h, spleen cell culture, 37° C., 4 days; for inhibition at 40 µg/mL: 40 μg/ml; for inhibition at 5 µg/mL: 5 μg/ml; for inhibition at 10 µg/mL: 10 μg/ml; for inhibition at 2.5 µg/mL: 2.5 μg/ml; for inhibition at 20 µg/mL: 20 μg/ml; for inhibition at 1 µg/mL: 1 μg/ml
Description: as §1, §2

CCOC(=O)c1c(-c2ccc3c(c2)OCO3)c(C#N)c(=O)n2ccccc12 [Compound S-8, 3-Cyano-1-ethoxycarbonyl-2-(3,4-methylenedioxyphenyl)-4H-quinolizin-4-one]
inhibition at 40 µg/mL [1]: 51% | inhibition at 40 µg/mL [2]: 5%

CCOC(=O)c1c(-c2ccc(Br)cc2)c(C#N)c(=O)n2ccccc12 [Compound S-3, 2-(4-Bromophenyl)-3-cyano-ethoxycarbonyl-4H-quinolizin-4-one]
inhibition at 49 µg/mL ([1]; 49 μg/ml): 34% | inhibition at 49 µg/mL ([2]; 49 μg/ml): 15%

CCOC(=O)c1c(-c2ccc(Cl)cc2Cl)c(C#N)c(=O)n2ccccc12 [Compound S-9, 3-Cyano-2-(2,4-dichlorophenyl)-1-ethoxycarbonyl-4H-quinolizin-4-one]
inhibition at 5 µg/mL [1]: 64% | inhibition at 5 µg/mL [2]: 32%

COC(=O)c1c(-c2ccccc2)c(C#N)c(=O)n2ccccc12 [Compound S-11, 3-Cyano-1-methoxycarbonyl-2-phenyl-4H-quinolizin-4-one]
inhibition at 40 µg/mL [1]: 46% | inhibition at 40 µg/mL [2]: 19%

CCOC(=O)c1c(-c2cc(OC)cc(OC)c2)c(C#N)c(=O)n2ccccc12 [Compound S-29, 3-Cyano-2-(3,5-dimethoxyphenyl)-1-ethoxycarbonyl-4H-quinolizin-4-one]
inhibition at 40 µg/mL [1]: 67% | inhibition at 40 µg/mL [2]: 17%

CCOC(=O)c1c(-c2ccc(OC)cc2)c(C#N)c(=O)n2ccccc12 [Compound S-6, 3-Cyano-1-ethoxycarbonyl-2-(4-methoxyphenyl)-4-quinolizin-4-one]
inhibition at 10 µg/mL [1]: 65% | inhibition at 10 µg/mL [2]: 37%

CCOC(=O)c1c(N2CCN(C)CC2)c(C#N)c(=O)n2ccccc12 [Compound S-42, 3-Cyano-1-ethoxycarbonyl-2-(4-methylpiperazin-1-yl)-4H-quinolizin-4-one]
inhibition at 40 µg/mL [1]: 63% | inhibition at 40 µg/mL [2]: 19%

CN1CCN(c2c(C#N)c(=O)n3ccccc3c2C(=O)OCCCc2ccccc2)CC1 [Compound S-43, 3-Cyano-2-(4-methylpiperazin-1-yl)-1-(3-phenylpropoxycarbonyl)-4H-quinolizin-4-one]
inhibition at 2.5 µg/mL [1]: 65% | inhibition at 2.5 µg/mL [2]: 1%

CCCOC(=O)c1c(-c2ccccc2)c(C#N)c(=O)n2ccccc12 [Compound S-10, 3-Cyano-2-phenyl-1-propoxycarbonyl-4H-quinolizin-4-one]
inhibition at 10 µg/mL [1]: 57% | inhibition at 10 µg/mL [2]: 22%

CCOC(=O)c1c(-c2ccccc2)c(C#N)c(=O)n2ccccc12 [Compound S-1, 3-Cyano-1-ethoxycarbonyl-2-phenyl-4H-quinolizin-4-one]
inhibition at 5 µg/mL [1]: 47% | inhibition at 5 µg/mL [2]: 1%

CCOC(=O)c1c(-c2ccc(C)c(F)c2)c(C#N)c(=O)n2ccccc12 [Compound S-13, 3-Cyano-1-ethoxycarbonyl-2-(3-fluoro-4-methylphenyl)-4H-quinolizin-4-one]
inhibition at 40 µg/mL [1]: 64% | inhibition at 40 µg/mL [2]: 26%

N#Cc1c(N2CCN(C=O)CC2)c(C(=O)OCCCc2ccccc2)c2ccccn2c1=O [Compound S-41, 3-Cyano-2-(4-formylpiperazin-1-yl)-1-(3-phenylpropoxycarbonyl)-4H-quinolizin-4-one]
inhibition at 2.5 µg/mL [1]: 75% | inhibition at 2.5 µg/mL [2]: 9%

CCOC(=O)c1c(-c2ccc(O)cc2)c(C#N)c(=O)n2ccccc12 [Compound S-30, 3-Cyano-1-ethoxycarbonyl-2-(4-hydroxyphenyl)-4H-quinolizin-4-one]
inhibition at 40 µg/mL [1]: 43% | inhibition at 40 µg/mL [2]: -20%

CCOC(=O)c1c(-c2cccc(OC)c2OC)c(C#N)c(=O)n2ccccc12 [Compound S-28, 3-Cyano-2-(2,3-dimethoxyphenyl)-1-ethoxycarbonyl-4H-quinolizin-4-one]
inhibition at 2.5 µg/mL [1]: 64% | inhibition at 2.5 µg/mL [2]: 14%

N#Cc1c(N2CCN(CCO)CC2)c(C(=O)OCCCc2ccccc2)c2ccccn2c1=O [Compound S-54, 3-Cyano-2-[4-(2-hydroxyethyl)piperazin-1-yl]-1-(3-phenylpropoxycarbonyl)-4H-quinolizin-4-one]
inhibition at 5 µg/mL [1]: 59% | inhibition at 5 µg/mL [2]: 4%

CCOC(=O)c1c(-c2ccc([N+](=O)[O-])cc2)c(C#N)c(=O)n2ccccc12 [Compound S-20, 3-Cyano-1-ethoxycarbonyl-2-(4-nitrophenyl)-4H-quinolizin-4-one]
inhibition at 10 µg/mL [1]: 49% | inhibition at 10 µg/mL [2]: 9%

CCOC(=O)c1c(-c2ccc(O)c(OC)c2)c(C#N)c(=O)n2ccccc12 [Compound S-32, 3-Cyano-1-ethoxycarbonyl-2-(4-hydroxy-3-methoxyphenyl)-4H-quinolizin-4-one]
inhibition at 20 µg/mL [1]: 53% | inhibition at 20 µg/mL [2]: -9%

CCOC(=O)c1c(N2CCCCC2)c(C#N)c(=O)n2ccccc12 [Compound S-35, 3-Cyano-1-ethoxycarbonyl-2-piperidino-4H-quinolizin-4-one]
inhibition at 5 µg/mL [1]: 30% | inhibition at 5 µg/mL [2]: 17%

CCOC(=O)c1c(N2CCN(CC(=O)N3CCOCC3)CC2)c(C#N)c(=O)n2ccccc12 [Compound S-55, 3-Cyano-1-ethoxycarbonyl-2-(4-morpholinocarbonylmethylpiperazin-1-yl)-4H-quinolizin-4-one]
inhibition at 40 µg/mL [1]: 36% | inhibition at 40 µg/mL [2]: -4%

CCOC(=O)c1c(-c2ccc(SC)cc2)c(C#N)c(=O)n2ccccc12 [Compound S-25, 3-Cyano-1-ethoxycarbonyl-2-(4-methylthiophenyl)-4H-quinolizin-4-one]
inhibition at 20 µg/mL [1]: 61% | inhibition at 20 µg/mL [2]: -4%

CCOC(=O)c1c(-c2ccc(F)cc2)c(C#N)c(=O)n2ccccc12 [Compound S-12, 3-Cyano-1-ethoxycarbonyl-2-(4-fluorophenyl)-4H-quinolizin-4-one]
inhibition at 20 µg/mL [1]: 50% | inhibition at 20 µg/mL [2]: 8%

N#Cc1c(N2CCCCC2)c(C(=O)OCCCc2ccccc2)c2ccccn2c1=O [Compound S-36, 3-Cyano-1-(3-phenylpropoxycarbonyl)-2-piperidino-4H-quinolizin-4-one]
inhibition at 5 µg/mL [1]: 39% | inhibition at 5 µg/mL [2]: -4%

N#Cc1c(N2CCC(Cc3ccccc3)CC2)c(C(=O)OCCCc2ccccc2)c2ccccn2c1=O [Compound S-45, 2-(4-Benzylpiperidino)-3-cyano-1-(3-phenylpropoxycarbonyl)-4H-quinolizin-4-one]
inhibition at 1 µg/mL [1]: 55% | inhibition at 1 µg/mL [2]: 16%

CCOC(=O)c1c(-c2cc(OC)c(OC)c(OC)c2)c(C#N)c(=O)n2ccccc12 [Compound S-19, 3-Cyano-1-ethoxycarbonyl-2-(3,4,5-trimethoxyphenyl)-4H-quinolizin-4-one]
inhibition at 20 µg/mL [1]: 48% | inhibition at 20 µg/mL [2]: 8%

CCOC(=O)c1c(-c2ccc(OC)c(O)c2)c(C#N)c(=O)n2ccccc12 [Compound S-33, 3-Cyano-1-ethoxycarbonyl-2-(3-hydroxy-4-methoxyphenyl)-4H-quinolizin-4-one]
inhibition at 40 µg/mL [1]: 58% | inhibition at 40 µg/mL [2]: 5%

CCOC(=O)c1c(-c2ccc(O)c(O)c2)c(C#N)c(=O)n2ccccc12 [Compound S-31, 3-Cyano-2-(3,4-dihydroxyphenyl)-1-ethoxycarbonyl-4H-quinolizin-4-one]
inhibition at 20 µg/mL [1]: 54% | inhibition at 20 µg/mL [2]: -7%

CCOC(=O)c1c(N2CCN(C=O)CC2)c(C#N)c(=O)n2ccccc12 [Compound S-40, 3-Cyano-1-ethoxycarbonyl-2-(4-formylpiperazin-1-yl)-4H-quinolizin-4-one]
inhibition at 40 µg/mL [1]: 34% | inhibition at 40 µg/mL [2]: 9%

CCOC(=O)c1c(N2CCN(CCO)CC2)c(C#N)c(=O)n2ccccc12 [Compound S-39, 3-Cyano-1-ethoxycarbonyl-2-[4-(2-hydroxyethyl)-piperazin-1-yl]-4H-quinolizin-4-one]
inhibition at 40 µg/mL [1]: 63% | inhibition at 40 µg/mL [2]: 17%

N#Cc1c(N2CCN(CC(=O)N3CCOCC3)CC2)c(C(=O)OCCCc2ccccc2)c2ccccn2c1=O [Compound S-56, 3-Cyano-2-(4-morpholinocarbonylmethylpiperazin-1-yl)-1-(3-phenylpropoxycarbonyl)-4H-quinolizin-4-one]
inhibition at 2.5 µg/mL [1]: 37% | inhibition at 2.5 µg/mL [2]: 1%

N#Cc1c(N2CCOCC2)c(C(=O)OCCCc2ccccc2)c2ccccn2c1=O [Compound S-49, 3-Cyano-2-morpholino-1-(3-phenylpropoxycarbonyl)-4H-quinolizin-4-one]
inhibition at 2.5 µg/mL [1]: 61% | inhibition at 2.5 µg/mL [2]: 21%

N#Cc1c(N2CCCC2)c(C(=O)OCCCc2ccccc2)c2ccccn2c1=O [Compound S-38, 3-Cyano-1-(3-phenylpropoxycarbonyl)-2-(1-pyrrolidinyl)-4H-quinolizin-4-one]
inhibition at 1 µg/mL [1]: 68% | inhibition at 1 µg/mL [2]: 1%
